Data as given in patent US20150284375A1 (AJINOMOTO CO., INC., priority 2012, published 2015).

These molecules were tested against T1, human TRPA1 (Homo sapiens, UniProt O75762) (assay: Measurement of TRPA1 antagonist activity (intracellular calcium increase, FLIPR, allylisothiocyanate stimulation)). Settings: allylisothiocyanate 20 μM stimulation, FLIPR calcium assay; read-out: antagonism hTRPA1.
T1 construct: expressed in transfected cells; host or cells: Human embryonic kidney-derived 293T cells, transiently transfected with the pcDNA3.1/zeo(+) human TRPA1 plasmid
T1 sequence (O75762 whole entry): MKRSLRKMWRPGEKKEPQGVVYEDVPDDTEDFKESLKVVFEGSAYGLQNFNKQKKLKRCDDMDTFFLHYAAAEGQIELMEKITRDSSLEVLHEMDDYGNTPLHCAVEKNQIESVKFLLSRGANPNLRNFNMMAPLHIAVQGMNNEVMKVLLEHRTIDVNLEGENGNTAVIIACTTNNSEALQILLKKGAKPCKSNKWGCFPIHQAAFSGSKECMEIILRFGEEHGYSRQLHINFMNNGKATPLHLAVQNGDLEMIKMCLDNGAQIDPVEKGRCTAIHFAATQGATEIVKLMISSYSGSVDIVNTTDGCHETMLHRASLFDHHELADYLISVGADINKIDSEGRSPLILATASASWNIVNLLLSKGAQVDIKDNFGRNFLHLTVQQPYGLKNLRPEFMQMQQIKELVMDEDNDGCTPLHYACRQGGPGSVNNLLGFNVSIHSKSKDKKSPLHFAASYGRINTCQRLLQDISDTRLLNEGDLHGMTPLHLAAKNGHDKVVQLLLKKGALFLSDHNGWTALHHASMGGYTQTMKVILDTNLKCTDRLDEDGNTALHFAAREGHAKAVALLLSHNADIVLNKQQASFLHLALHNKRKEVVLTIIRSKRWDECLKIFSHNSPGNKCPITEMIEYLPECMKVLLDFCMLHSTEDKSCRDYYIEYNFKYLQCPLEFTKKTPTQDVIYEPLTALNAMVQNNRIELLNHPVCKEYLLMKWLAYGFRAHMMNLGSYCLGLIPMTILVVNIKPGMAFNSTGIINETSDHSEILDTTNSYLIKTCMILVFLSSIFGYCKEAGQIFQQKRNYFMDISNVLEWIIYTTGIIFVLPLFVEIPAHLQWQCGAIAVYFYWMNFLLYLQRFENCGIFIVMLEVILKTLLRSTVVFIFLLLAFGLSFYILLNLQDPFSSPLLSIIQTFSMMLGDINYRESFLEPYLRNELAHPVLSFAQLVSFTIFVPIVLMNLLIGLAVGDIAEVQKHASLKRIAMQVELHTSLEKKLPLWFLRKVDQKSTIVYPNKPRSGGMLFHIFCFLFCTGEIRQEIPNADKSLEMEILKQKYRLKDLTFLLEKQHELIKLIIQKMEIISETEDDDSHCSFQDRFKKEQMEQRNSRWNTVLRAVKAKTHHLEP
Type: cell-based
Procedure, shortened: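 IC50 derives from a sigmoid fit of inhibition of the 5-min FLIPR fluorescence change evoked by 20 μM allylisothiocyanate, normalized between agonist and buffer responses. Test substance, diluted in HBSS/20 mM HEPES pH 7.2 plus 0.1% BSA, was applied 10 min beforehand at room temperature to Calcium4-loaded 293T cells transiently expressing human TRPA1.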

SMILES | IC50 [nM]
O=C(NCc1cccc(OCc2ccc(C(F)(F)F)cc2)c1)[C@@H]1CCCN1S(=O)(=O)c1cnn(C(F)F)c1 [Example 205, (2S)-1-[1-(difluoromethyl)pyrazol-4-yl]sulfonyl-N-[[3-[[4-(trifluoromethyl)phenyl]methoxy]phenyl]methyl]pyrrolidine-2-carboxamide] | 280
O=C(NCc1cccc(OCc2ccc(C(F)(F)F)cc2)c1)[C@@H]1CCCN1S(=O)(=O)c1cnc2ccccc2c1 [Example 206, (2S)-1-(3-quinolylsulfonyl)-N-[[3-[[4-(trifluoromethyl)phenyl]methoxy]phenyl]methyl]pyrrolidine-2-carboxamide] | 290
O=C(NCc1cccc(OCc2ccc(C(F)(F)F)cc2)c1)[C@@H]1CCCN1S(=O)(=O)c1ccc2ncccc2c1 [Example 207, (2S)-1-(6-quinolylsulfonyl)-N-[[3-[[4-(trifluoromethyl)phenyl]methoxy]phenyl]methyl]pyrrolidine-2-carboxamide] | 1200
O=C(NCc1cccc(OCc2ccc(C(F)(F)F)cc2)c1)[C@@H]1CCCN1S(=O)(=O)c1cc2ccccc2s1 [Example 208, (2S)-1-(benzothiophen-2-ylsulfonyl)-N-[[3-[[4-(trifluoromethyl)phenyl]methoxy]phenyl]methyl]pyrrolidine-2-carboxamide] | 87
O=C(NCc1cccc(OCc2ccc(C(F)(F)F)cc2)c1)[C@@H]1CCCN1S(=O)(=O)c1ccc2ncsc2c1 [Example 209, (2S)-1-(1,3-benzothiazol-6-ylsulfonyl)-N-[[3-[[4-(trifluoromethyl)phenyl]methoxy]phenyl]methyl]pyrrolidine-2-carboxamide] | 2900
O=C(NCc1cccc(OCc2ccc(C(F)(F)F)cc2)c1)[C@@H]1CCCN1S(=O)(=O)c1ccc2nsnc2c1 [Example 210, (2S)-1-(2,1,3-benzothiadiazol-5-ylsulfonyl)-N-[[3-[[4-(trifluoromethyl)phenyl]methoxy]phenyl]methyl]pyrrolidine-2-carboxamide] | 150
O=C(NCc1cccc(OCc2ccc(C(F)(F)F)cc2)c1)[C@@H]1CCCN1S(=O)(=O)c1cccc2nsnc12 [Example 211, (2S)-1-(2,1,3-benzothiadiazol-4-ylsulfonyl)-N-[[3-[[4-(trifluoromethyl)phenyl]methoxy]phenyl]methyl]pyrrolidine-2-carboxamide] | 5500
O=C(NCc1cccc(OCc2ccc(C(F)(F)F)cc2)c1)[C@@H]1CCCN1S(=O)(=O)c1cccc2nonc12 [Example 212, (2S)-1-(2,1,3-benzoxadiazol-4-ylsulfonyl)-N-[[3-[[4-(trifluoromethyl)phenyl]methoxy]phenyl]methyl]pyrrolidine-2-carboxamide] | 6200
O=C(NCc1cccc(OCc2ccc(C(F)(F)F)cc2)c1)[C@@H]1CC=CCN1S(=O)(=O)c1ccc(F)cc1 [Example 213, (2S)-1-(4-fluorophenyl)sulfonyl-N-[[3-[[4-(trifluoromethyl)phenyl]methoxy]phenyl]methyl]-3,6-dihydro-2H-pyridine-2-carboxamide] | 350
O=C(NCc1cccc(OCc2ccc(C(F)(F)F)cc2)c1)[C@@H]1[C@H]2CC[C@H](C2)N1S(=O)(=O)c1ccc(F)cc1 [Example 214, (1S,2S,4R)-3-(4-fluorophenyl)sulfonyl-N-[[3-[[4-(trifluoromethyl)phenyl]methoxy]phenyl]methyl]-3-azabicyclo[2.2.1] heptane-2-carboxamide] | 120
O=C(NCc1cccc(OCc2ccc(C(F)(F)F)cc2)c1)[C@@H]1[C@H]2CC[C@H](C2)N1S(=O)(=O)c1ccsc1 [Example 215, (1S,2S,4R)-3-(3-thienylsulfonyl)-N-[[3-[[4-(trifluoromethyl)phenyl]methoxy]phenyl]methyl]-3-azabicyclo[2.2.1]heptane-2-carboxamide] | 110
O=C(NCc1cccc(OCc2ccc(C(F)(F)F)cc2)c1)[C@@H]1CCCN1S(=O)(=O)c1ccncc1 [Example 216, (2S)-1-(4-pyridylsulfonyl)-N-[[3-[[4-(trifluoromethyl)phenyl]methoxy]phenyl]methyl]pyrrolidine-2-carboxamide] | 60
O=C(NCc1cccc(OCc2ccc(C(F)(F)F)cc2)c1)[C@@H]1CCCN1S(=O)(=O)c1cncs1 [Example 217, (2S)-1-thiazol-5-ylsulfonyl-N-[[3-[[4-(trifluoromethyl)phenyl]methoxy]phenyl]methyl]pyrrolidine-2-carboxamide] | 940
O=C(NCc1cccc(OCc2ccc(C(F)(F)F)cc2)c1)[C@@H]1CCCN1S(=O)(=O)c1cscn1 [Example 218, (2S)-1-thiazol-4-ylsulfonyl-N-[[3-[[4-(trifluoromethyl)phenyl]methoxy]phenyl]methyl]pyrrolidine-2-carboxamide] | 830
O=C(NCc1cccc(OCc2ccc(C(F)(F)F)cc2)c1)[C@@H]1CCCN1S(=O)(=O)c1nc2ccccc2s1 [Example 219, (2S)-1-(1,3-benzothiazol-2-ylsulfonyl)-N-[[3-[[4-(trifluoromethyl)phenyl]methoxy]phenyl]methyl]pyrrolidine-2-carboxamide] | 120
O=C(NCc1cccc(OCc2ccc(C(F)(F)F)cc2)c1)[C@@H]1CCCN1S(=O)(=O)n1ccnc1 [Example 220, (2S)-1-imidazol-1-ylsulfonyl-N-[[3-[[4-(trifluoromethyl)phenyl]methoxy]phenyl]methyl]pyrrolidine-2-carboxamide] | 190
